From US20240158756A1, “FEEDER-BASED AND FEEDER-FREE STEM CELL CULTURE SYSTEMS FOR STRATIFIED EPITHELIAL STEM CELLS, AND USES RELATED THERETO” (University of Houston System, priority 2019, published 2024)

Columns and labels:
[1] = molecular target: T1, ALK5 (TGF-β RI) (Homo sapiens, UniProt P36897); details: high concentrations, approximate; cited from earlier work
T1 sequence (P36897 34-503): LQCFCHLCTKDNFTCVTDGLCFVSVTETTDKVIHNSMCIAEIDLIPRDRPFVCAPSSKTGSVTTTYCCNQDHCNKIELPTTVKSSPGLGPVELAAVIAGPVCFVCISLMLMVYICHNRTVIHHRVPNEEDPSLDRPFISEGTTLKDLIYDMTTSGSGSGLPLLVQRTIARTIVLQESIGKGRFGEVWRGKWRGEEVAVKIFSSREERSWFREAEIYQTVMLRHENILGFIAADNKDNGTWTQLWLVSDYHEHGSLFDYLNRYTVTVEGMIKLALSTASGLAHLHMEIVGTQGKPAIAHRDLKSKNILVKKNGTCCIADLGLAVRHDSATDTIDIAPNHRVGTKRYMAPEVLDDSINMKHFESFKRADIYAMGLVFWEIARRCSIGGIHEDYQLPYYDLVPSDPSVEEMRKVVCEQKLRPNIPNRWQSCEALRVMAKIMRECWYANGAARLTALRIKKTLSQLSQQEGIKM

[2] = tested on: epithelial stem cells derived from human tissues or other mammals; assay: Epithelial stem cell culture on irradiated 3T3-J2 feeder; details: feeder-based medium
Description: (§1) An illustrative system is a medium referred to as SQM. The SQM medium has been tested and proven to support robust growth of epithelial stem cells derived from human tissues or other mammals in the presence of the irradiate feeder of mouse fibroblast cells (3T3-J2). For example, lung stem cells, esophagus stem cell, bladder stem cells and ovarian cancer stem cells, can all grow robustly in this culture system that comprises SQM medium, along with irradiated 3T3-J2 feeders in the illustrated example.
(§2) The base medium comprises DMEM, F12, FBS, L-glutamine, Adenine, Pen/Strep, Insulin, T3, Hydrocortisone, EGF and is further added a Rock inhibitor, TGF-beta inhibitor, BMP4 inhibitor, VEGF inhibitor, TrkA inhibitor, Ponatinib and FGF10. […] R-spondin was found not required to support the self-renewal and multipotency of stratified epithelial stem cells.

[3] = tested on: epithelial stem cells derived from human tissues or other mammals; assay: Feeder-free epithelial stem cell culture; assay type: cell-based
Description: as §1, with “Another” for “An”, “SGM-63+.” for “SQM.”, “SGM-63+” for “SQM”, “absence” for “presence”, “SGM-63+ medium without the need of” for “SQM medium, along with”
as §2, with “Ponatinib, CK2 inhibitor, Syk inhibitor, LPA Receptor antagonist, Oct 4-activating compound 1, GSK3 inhibitor” for “Ponatinib”

Molecule | concentration at which ALK5 may be inhibited [1] | effect of inclusion in the medium on epithelial stem cell self-renewal [2] | effect of inclusion in the medium on epithelial stem cell self-renewal [3]
4-[5-(4-Fluorophenyl)-2-[4-(methylsulfonyl)phenyl]-1H-imidazol-4-yl]pyridine [SB-203580] | ≥ 10 µM | – | –
NC(=O)c1cccnc1 [nicotinamide] | – | induce the abortion of some epithelial stem cell (lung, esophagus etc) self-renewal | induce the abortion of some epithelial stem cell (lung, esophagus etc) self-renewal
jagged1: Notch agonist, surface-bound or secreted Notch ligand | – | induce the abortion of some epithelial stem cell (lung, esophagus etc) self-renewal | induce the abortion of some epithelial stem cell (lung, esophagus etc) self-renewal
